From patent US20060069132A1, “Azolecarboxamide herbicides” (priority 2004, published 2006)
Like-named read-outs stand apart in the source and are kept apart here.

How the values were obtained:
[1] = tested on: cocklebur; assay: Test B pre-/postemergence herbicide test; assay type: in vivo, Xanthium strumarium; conditions: Xanthium strumarium; for pest or weed control at 500 g/ha: 500 g ai/ha
In short: (§1)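 Greenhouse pot assay with simultaneous preemergence (treated seed) and postemergence (2–18 cm seedlings) applications of surfactant-containing, non-phytotoxic solvent formulations. Response scored visually 13–15 days later on a 0–100 scale, 100 meaning complete control.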

[2] = tested on: giant foxtail; assay: Test B pre-/postemergence herbicide test; assay type: in vivo, Setaria faberi; conditions: Setaria faberi, 336 h; for pest or weed control at 125 g/ha: 125 g ai/ha; for pest or weed control at 500 g/ha: 500 g ai/ha
In short: as §1

[3] = tested on: wheat; assay: Test B postemergence herbicide test; assay type: in vivo, Triticum aestivum; conditions: Postemergence, 500 g ai/ha; visual rating after 13 to 15 days, scale 0 (no effect) to 100 (complete control)
In short: (§2)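 Postemergence plants were sprayed with formulated test chemicals at 2 to 18 cm height (1- to 4-leaf stage); paddy species were grown to the 2-leaf stage. After 13 to 15 days in a greenhouse, injury was rated visually against untreated controls on a 0–100 scale (0 = no effect, 100 = complete control).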

[4] = tested on: ducksalad; assay: Test B flooded paddy test; assay type: in vivo, Heteranthera limosa; conditions: Heteranthera limosa, 336 h, 1000 g ai/ha, visual rating, scale 0 to 100 (0 no effect, 100 complete control), 13 to 15 days, read-out: Ducksalad plant response rating
In short: (§3)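 Greenhouse test; postemergence application to plants at 1–4 leaves (2–18 cm); paddy species at 2 leaves; evaluated visually vs controls at 13–15 days; scale 0–100 (100 = complete control).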

[5] = tested on: lambsquarters; assay: Test B pre-/postemergence herbicide test; assay type: in vivo, Chenopodium album; conditions: Chenopodium album, 336 h; for pest or weed control at 125 g/ha: 125 g ai/ha; for pest or weed control at 500 g/ha: 500 g ai/ha
In short: as §1

[6] = tested on: barnyardgrass; assay: Test B flooded paddy test; assay type: in vivo, Echinochloa crus-galli; conditions: Echinochloa crus-galli, 336 h, 1000 g ai/ha, visual rating, scale 0 to 100 (0 no effect, 100 complete control), 13 to 15 days, read-out: Barnyardgrass plant response rating
In short: as §3

[7] = tested on: Surinam grass; assay: Test B pre-/postemergence herbicide test; assay type: in vivo, Urochloa decumbens; conditions: Urochloa decumbens; for pest or weed control at 500 g/ha: 500 g ai/ha
In short: as §1

[8] = tested on: pigweed; assay: Test B pre-/postemergence herbicide test; assay type: in vivo, Amaranthus retroflexus; conditions: Amaranthus retroflexus, 336 h; for pest or weed control at 500 g/ha: 500 g ai/ha
In short: as §1

[9] = tested on: barnyardgrass; assay: Test B pre-/postemergence herbicide test; assay type: in vivo, Echinochloa crus-galli; conditions: Echinochloa crus-galli; for pest or weed control at 500 g/ha: 500 g ai/ha
In short: as §1

[10] = tested on: morningglory; assay: Test B pre-/postemergence herbicide test; assay type: in vivo, Ipomoea coccinea; conditions: Ipomoea, 336 h; for pest or weed control at 125 g/ha: 125 g ai/ha; for pest or weed control at 500 g/ha: 500 g ai/ha
In short: as §1

[11] = tested on: velvetleaf; assay: Test B pre-/postemergence herbicide test; assay type: in vivo, Abutilon theophrasti; conditions: Abutilon theophrasti, 336 h; for pest or weed control at 500 g/ha: 500 g ai/ha
In short: as §1

[12] = tested on: large crabgrass; assay: Test B pre-/postemergence herbicide test; assay type: in vivo, Digitaria sanguinalis; conditions: Digitaria sanguinalis; for pest or weed control at 500 g/ha: 500 g ai/ha
In short: as §1

[13] = tested on: rice; assay: Test B flooded paddy test; assay type: in vivo, Oryza sativa; conditions: Oryza sativa, 336 h, 1000 g ai/ha, visual rating, scale 0 to 100 (0 no effect, 100 complete control), 13 to 15 days, read-out: Rice plant response rating
In short: as §3

[14] = tested on: wild oat; assay: Test B postemergence herbicide test; assay type: in vivo, Avena fatua; conditions: Postemergence, scale 0 (no effect) to 100 (complete control)
In short: as §2

[15] = tested on: small flower umbrella sedge; assay: Test B flooded paddy test; assay type: in vivo, Cyperus difformis; conditions: Cyperus difformis, 336 h, 1000 g ai/ha, visual rating, scale 0 to 100 (0 no effect, 100 complete control), 13 to 15 days, read-out: Sedge, Umbrella plant response rating
In short: as §3

SMILES: CCn1nc(C(C)(C)C)cc1C(=O)Nc1cccc(C(=O)NCC(F)(F)F)c1 [Compound 43, 3-(1,1-dimethylethyl)-1-ethyl-N-[3-[[(2,2,2-trifluoroethyl)amino]carbonyl]-phenyl]-1H-pyrazole-5-carboxamide]
- pest or weed control at 125 g/ha ([1]; post-emergence, Postemergence, 125 g ai/ha, scale 0 (no effect) to 100 (complete control), read-out: Cocklebur plant response rating): 10%
- pest or weed control at 500 g/ha ([1]; post-emergence, Postemergence, visual rating after 13 to 15 days, scale 0 (no effect) to 100 (complete control), read-out: Plant response rating, Cocklebur): 90%
- pest or weed control at 500 g/ha ([1]; pre-emergence, Preemergence, scale 0 to 100, read-out: Cocklebur plant response rating): 10%
- pest or weed control at 125 g/ha ([2]; post-emergence, Postemergence, scale 0 (no effect) to 100 (complete control), read-out: Foxtail, Giant plant response rating): 30%
- pest or weed control at 500 g/ha ([2]; post-emergence, Postemergence, visual rating after 13 to 15 days, scale 0 (no effect) to 100 (complete control), read-out: Plant response rating, Foxtail, Giant): 50%
- pest or weed control at 500 g/ha ([2]; pre-emergence, Preemergence, scale 0 to 100, read-out: Foxtail, Giant plant response rating): 80%
- pest or weed control at 125 g/ha ([2]; pre-emergence, preemergence, 0 to 100 scale, 0 is no effect, 100 is complete control, read-out: Plant response rating, Foxtail, Giant): 10%
- Plant response rating, Wheat [3]: 30
- pest or weed control at 1000 g/ha [4]: 70%
- pest or weed control at 125 g/ha ([5]; post-emergence, Postemergence, scale 0 (no effect) to 100 (complete control), read-out: Lambsquarters plant response rating): 90%
- pest or weed control at 500 g/ha ([5]; post-emergence, Postemergence, visual rating after 13 to 15 days, scale 0 (no effect) to 100 (complete control), read-out: Plant response rating, Lambsquarters): 90%
- pest or weed control at 500 g/ha ([5]; pre-emergence, Preemergence, scale 0 to 100, read-out: Lambsquarters plant response rating): 100%
- pest or weed control at 125 g/ha ([5]; pre-emergence, preemergence, 0 to 100 scale, 0 is no effect, 100 is complete control, read-out: Plant response rating, Lambsquarters): 90%
- pest or weed control at 1000 g/ha [6]: 80%
- pest or weed control at 500 g/ha ([7]; post-emergence, Postemergence, visual rating after 13 to 15 days, scale 0 (no effect) to 100 (complete control), read-out: Plant response rating, Surinam Grass): 80%
- pest or weed control at 500 g/ha ([7]; pre-emergence, Preemergence, scale 0 to 100, read-out: Surinam Grass plant response rating): 50%
- pest or weed control at 125 g/ha ([7]; pre-emergence, preemergence, 125 g ai/ha, 0 to 100 scale, 0 is no effect, 100 is complete control, read-out: Plant response rating, Surinam Grass): 30%
- pest or weed control at 500 g/ha ([8]; post-emergence, Postemergence, visual rating after 13 to 15 days, scale 0 (no effect) to 100 (complete control), read-out: Plant response rating, Pigweed): 100%
- pest or weed control at 500 g/ha ([8]; pre-emergence, Preemergence, scale 0 to 100, read-out: Pigweed plant response rating): 100%
- pest or weed control at 125 g/ha ([8]; pre-emergence, preemergence, 125 g ai/ha, 0 to 100 scale, 0 is no effect, 100 is complete control, read-out: Plant response rating, Pigweed): 100%
- pest or weed control at 125 g/ha ([9]; post-emergence, Postemergence, 125 g ai/ha, scale 0 (no effect) to 100 (complete control), read-out: Barnyardgrass plant response rating): 20%
- pest or weed control at 500 g/ha ([9]; post-emergence, Postemergence, visual rating after 13 to 15 days, scale 0 (no effect) to 100 (complete control), read-out: Plant response rating, Barnyardgrass): 70%
- pest or weed control at 500 g/ha ([9]; pre-emergence, Preemergence, scale 0 to 100, read-out: Barnyardgrass plant response rating): 100%
- pest or weed control at 125 g/ha ([10]; post-emergence, Postemergence, scale 0 (no effect) to 100 (complete control), read-out: Morningglory plant response rating): 80%
- pest or weed control at 500 g/ha ([10]; post-emergence, Postemergence, visual rating after 13 to 15 days, scale 0 (no effect) to 100 (complete control), read-out: Plant response rating, Morningglory): 100%
- pest or weed control at 500 g/ha ([10]; pre-emergence, Preemergence, scale 0 to 100, read-out: Morningglory plant response rating): 10%
- pest or weed control at 125 g/ha ([10]; pre-emergence, preemergence, 0 to 100 scale, 0 is no effect, 100 is complete control, read-out: Plant response rating, Morningglory): 0%
- pest or weed control at 500 g/ha ([11]; post-emergence, Postemergence, visual rating after 13 to 15 days, scale 0 (no effect) to 100 (complete control), read-out: Plant response rating, Velvetleaf): 90%
- pest or weed control at 500 g/ha ([11]; pre-emergence, Preemergence, scale 0 to 100, read-out: Velvetleaf plant response rating): 100%
- pest or weed control at 125 g/ha ([11]; pre-emergence, preemergence, 125 g ai/ha, 0 to 100 scale, 0 is no effect, 100 is complete control, read-out: Plant response rating, Velvetleaf): 30%
- pest or weed control at 125 g/ha ([12]; post-emergence, Postemergence, 125 g ai/ha, scale 0 (no effect) to 100 (complete control), read-out: Crabgrass, Large plant response rating): 90%
- pest or weed control at 500 g/ha ([12]; post-emergence, Postemergence, visual rating after 13 to 15 days, scale 0 (no effect) to 100 (complete control), read-out: Plant response rating, Crabgrass, Large): 90%
- pest or weed control at 500 g/ha ([12]; pre-emergence, Preemergence, scale 0 to 100, read-out: Crabgrass, Large plant response rating): 100%
- plant injury at 1000 g/ha [13]: 50%
- pest or weed control at 125 g/ha ([14]; Avena fatua, post-emergence, 336 h, 125 g ai/ha, read-out: Oat, Wild plant response rating): 10%
- Plant response rating, Oat, Wild ([14]; 500 g ai/ha, visual rating after 13 to 15 days): 30
- pest or weed control at 1000 g/ha [15]: 70%
